Measured values taken from patent US8067616B2 (Nereus Pharmaceuticals, Inc., priority 2006, dated 2011).

Legend:
[1] = target: caspase-like activity of purified rabbit 20S proteasomes (Oryctolagus cuniculus, UniProt G1T235); assay: In vitro inhibition of caspase-like activity of purified rabbit muscle 20S proteasome (Z-LLE-AMC); assay type: biochemical; settings: IC50 Values, purified rabbit 20S proteasome
[2] = system: chymotrypsin-like activity of the 20S proteasome in RPMI 8226 cells; assay: Chymotrypsin-like activity of proteasomes in RPMI 8226 cells after 1 hr exposure, measured in cell lysates (Suc-LLVY-AMC); assay type: cell-based, human; settings: for % inhibition of the 20S proteasome chymotrypsin-like activity in RPMI 8826 cells: 1 hr incubation
Description: RPMI 8226 (ATCC, CCL-155), the human multiple myeloma cell line, was cultured in RPMI 1640 medium supplemented with 2 mM L-Glutamine, 1% Penicillin/Streptomycin, 10 mM HEPES and 10% Fetal Bovine Serum at 37° C., 5% CO2 and 95% humidified air. To evaluate the inhibitory effects on the chymotrypsin-like activity of the 20S proteasome, test compounds prepared in DMSO were appropriately diluted in culture medium and added to 1×10^6/ml RMPI 8226 cells at final concentration of 1, 5 or 10 nM. DMSO was used as the vehicle control at a final concentration of 0.1%. Following 1 hr incubation of RMPI 8226 cells with the compounds, the cells were pelleted by centrifugation at 2,000 rpm for 10 sec at room temperature and washed 3× with ice-cold 1× Dubach's Phosphate-Buffered Saline (DPBS, Mediatech, Herndon, Va.). DPBS washed cells were lysed on ice for 15 min in lysis buffer (20 mM HEPES, 0.5 mM EDTA, 0.05% Triton X-100, pH 7.3) supplemented with protease inhibitor cocktail (Roche Diagnostics, Indianapolis, Ind.). Cell debris was pelleted by centrifugation at 14,000 rpm for 10 min, 4° C. and supernatants (=cell lysates) were transferred to a new tube. Protein concentration was determined by the BCA protein assay kit (Pierce Biotechnology, Rockford, Ill.). […] The reactions were initiated by the addition of 10 μL of 0.4 mM Suc-LLVY-AMC (prepared by diluting a 10 mM solution of the peptide in DMSO 1:25 with assay buffer) to 190 μL of the cell lysates in 96-well Costar microtiter plate and incubated in the Thermo Lab Systems Fluoroskan plate reader at 37° C. Fluorescence of the cleaved peptide substrate was measured at λex=390 nm and λem=460 nm. All data were collected every five minutes for 2 hour. The total protein used for each assay was 20 μg. The final concentration of Suc-LLVY-AMC and DMSO was 20 μM and 0.2%, respectively. After subtraction of the background (the values from wells containing buffer and substrate in the absence of cell lysate), the activity of test compound was expressed as % inhibition as normalized to the proteasome activity observed in the DMSO treated control cells.

C[C@@]12OC(=O)[C@]1([C@@H](O)[C@@H]1C=CCCC1)NC(=O)[C@@H]2CCCl [XVI-1A, Salinosporamide A]
IC50 ([1]; XVI-1A obtained by fermentation): 387 nM | IC50 ([1]; XVI-1A obtained synthetically): 467 nM | % inhibition of the 20S proteasome chymotrypsin-like activity in RPMI 8826 cells ([2]; fermentation XVI-1A, 1 nM): 38% | % inhibition of the 20S proteasome chymotrypsin-like activity in RPMI 8826 cells ([2]; fermentation XVI-1A, 5 nM): 86% | % inhibition of the 20S proteasome chymotrypsin-like activity in RPMI 8826 cells ([2]; fermentation XVI-1A, 10 nM): 97% | inhibition of the 20S proteasome chymotrypsin-like activity on exposure of RPMI 8226 cells ([2]; fermentation or synthetic XVI-1A, 1, 5 or 10 nM): dose-dependent inhibition | % inhibition of the 20S proteasome chymotrypsin-like activity in RPMI 8826 cells ([2]; synthetic XVI-1A, 1 nM): 32% | % inhibition of the 20S proteasome chymotrypsin-like activity in RPMI 8826 cells ([2]; synthetic XVI-1A, 5 nM): 79% | % inhibition of the 20S proteasome chymotrypsin-like activity in RPMI 8826 cells ([2]; synthetic XVI-1A, 10 nM): 96%
